Data reported in PubChem BioAssay (NCI).
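Exposure lasted 48 hours, with cells grown in 96-well plates and compounds tested at five concentrations. Here, GI50 denotes the concentration required for 50% inhibition of growth. TGI marks complete inhibition of growth.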

Columns and labels:
Experiment in all cases: NCI anticancer screen, dose series, 48 h
A549 NSCLC = test system: A549 NSCLC
COLO 205 colon = test system: COLO 205 colon
DU-145 prostate = test system: DU-145 prostate
IGROV1 ovarian = test system: IGROV1 ovarian
KM12 colon = test system: KM12 colon
MDA-MB-435 = test system: MDA-MB-435
OVCAR-8 ovarian = test system: OVCAR-8 ovarian
RXF 393 renal = test system: RXF 393 renal
SK-OV-3 ovarian = test system: SK-OV-3 ovarian
SW-620 colon = test system: SW-620 colon

Row | SMILES | TGI (A549 NSCLC) [µM] | TGI (COLO 205 colon) [µM] | TGI (DU-145 prostate) [µM] | TGI (IGROV1 ovarian) [µM] | TGI (KM12 colon) [µM] | TGI (MDA-MB-435) [µM] | TGI (OVCAR-8 ovarian) [µM] | TGI (RXF 393 renal) [µM] | TGI (SK-OV-3 ovarian) [µM] | TGI (SW-620 colon) [µM] | GI50 (DU-145 prostate) [µM] | GI50 (MDA-MB-435) [µM] | GI50 (RXF 393 renal) [µM] | GI50 (SK-OV-3 ovarian) [µM]
1 | NC(Cc1ccccc1)C(=O)O (stereo not given) | > 100 | > 100 | > 100 | > 100 | > 100 | > 100 | > 100 | > 100 | > 100 | > 100 | – | – | – | –
2 | CCSc1nn(-c2c3ccccc3nc3ccccc23)c(=S)s1 | > 100 | > 100 | > 100 | > 100 | > 100 | > 100 | > 100 | > 100 | > 100 | > 100 | – | – | – | –
3 | CC(=O)Oc1ccc(-c2c(OC(C)=O)c(OC(C)=O)c(-c3ccc(OC(C)=O)c(OC(C)=O)c3)c(OC(C)=O)c2OC(C)=O)cc1 | 37.8 | 32 | 29.8 | 28.8 | 28.1 | 31.7 | 28.2 | 36.1 | 69 | 38.6 | – | – | – | –
4 | Cc1nc2ccccc2n1CCc1nc2ccccc2[nH]1 | > 100 | > 100 | > 100 | > 100 | > 100 | > 100 | > 100 | > 100 | > 100 | > 100 | – | – | – | –
5 | CN1C(C(=O)Nc2ccccn2)=C(O)c2ccccc2S1(=O)=O | > 100 | > 100 | > 100 | – | > 100 | > 100 | > 100 | > 100 | > 100 | > 100 | – | – | – | –
6 | Oc1cc(Br)cc2cc(Br)cnc12 | > 100 | > 100 | 60.8 | 12.6 | > 100 | > 100 | > 100 | 10.9 | > 100 | > 100 | – | – | – | –
7 | CCCNC(=O)Cn1c(-c2ccccc2)cc2ccccc21 | > 100 | > 100 | > 100 | > 100 | > 100 | > 100 | > 100 | 57.3 | > 100 | > 100 | – | – | – | –
8 | Fc1ccccc1C1SCC2=Nc3ccccc3CN21 (stereo not given) | > 100 | > 100 | > 100 | – | > 100 | > 100 | > 100 | > 100 | > 100 | > 100 | – | – | – | –
9 | O=C(O)c1cc2c(cc1CC(Cc1ccccc1)C(=O)O)CCC2 (stereo not given) | > 100 | > 100 | > 100 | > 100 | > 100 | > 100 | > 100 | > 100 | > 100 | > 100 | – | – | – | –
10 | OCC1=C[C@@](COCc2ccccc2)(OCc2ccccc2)[C@@H](OCc2ccccc2)[C@@H]1OCc1ccccc1 | 67.3 | 23.9 | > 100 | 38.5 | 56.6 | 27.4 | > 100 | 18.4 | – | > 100 | – | – | – | –
11 | CCCS(=O)OC1C(C2COC(C)(C)O2)OC2OC(C)(C)OC21 (stereo not given) | 49.6 | 27.2 | 47.3 | 33.2 | 28.2 | 23.4 | 29.3 | 25.5 | > 86.8 | 32.8 | – | – | – | –
12 | Clc1cccc(Cl)c1C1ON=C(c2ccccc2)N1C12CC3CC(CC(C3)C1)C2 (stereo not given) | > 100 | 30.5 | > 100 | > 100 | 30.8 | > 100 | > 100 | > 100 | > 100 | – | – | – | – | –
13 | Cc1cc(C(C)(C)C)c(OCCCN2CCOCC2)c(C(C)(C)C)c1 | 32.5 | 30.6 | 34.1 | 34.2 | 36 | 38.2 | 35.4 | 31.9 | 35.6 | 32.3 | – | – | – | –
14 | COc1cc(/C=C2\N=C(c3ccccc3)N(c3ccc(C(=O)c4ccccc4)cc3N3C(=O)/C(=C/c4cc(OC)c(OC)c(OC)c4)N=C3c3ccccc3)C2=O)cc(OC)c1OC | 71.6 | 30 | 40.3 | > 100 | 48.9 | 18.5 | 73.2 | 34.9 | 55.4 | 40.7 | – | – | – | –
15 | NC(=S)NS(=O)(=O)c1ccc(Cl)cc1Cl | > 100 | > 100 | > 100 | > 100 | > 100 | > 100 | > 100 | > 100 | > 100 | > 100 | – | – | – | –
16 | Cc1cc2nnn(C3CCCO3)c2cc1C (stereo not given) | > 100 | > 100 | > 100 | > 100 | – | > 100 | > 100 | > 100 | > 100 | – | – | – | – | –
17 | Cc1ccc(N=Nc2cc(=O)[nH]c(=O)[nH]2)cc1C | 34.7 | 19.9 | 27.9 | 26.9 | 24.5 | 26.8 | 30.9 | 24.9 | – | 14.9 | – | – | – | –
18 | CN(CCc1ccccn1)C(=S)N/N=C/c1ccccn1 | 3.75 | 0.727 | > 100 | 1.21 | 17.1 | 38.1 | – | 2.98 | > 51.3 | > 100 | – | – | – | –
19 | Cc1cc(=O)[nH]c(S(=O)(=O)NC(=S)Nc2ccc(Br)cc2)n1 | – | > 100 | > 100 | > 100 | – | > 100 | > 100 | > 100 | > 100 | > 100 | – | – | – | –
20 | CCOC(=O)Cn1c(C)nc2nn(Cc3ccccc3)cc2c1=O | > 100 | – | > 100 | > 100 | > 100 | > 100 | > 100 | > 100 | > 100 | > 100 | – | – | – | –
21 | Brc1ccc2[nH]cc(-c3nc(-c4c[nH]c5ccncc45)cs3)c2c1 | – | – | 3.07 | – | – | 3.06 | – | 2.87 | 3.03 | – | 1.68 | 1.66 | 1.49 | 1.65
22 | O=c1oc2ccccc2cc1-c1nc2ccccc2s1 | 16.8 | – | 43.7 | 18.6 | > 54.3 | 18.1 | 20.4 | 24.2 | 23.7 | 34.8 | – | – | – | –
23 | C=C(Cl)C(=C)CCC(Cl)C(C)(C)Cl (stereo not given) | > 100 | > 100 | > 100 | > 100 | > 100 | > 100 | – | > 100 | > 100 | > 100 | – | – | – | –
